Experimental data taken from patent US10023587B2, “Oxabicycloheptanes and oxabicycloheptenes, their preparation and use” (LIXTE BIOTECHNOLOGY, INC., priority 2007, dated 2018).
Where two headings read alike, the source gives them in different places.

Columns and labels:
[1] = tested on: MOLT-4 cells; experiment: CellTiter-Glo assay, MOLT-4; assay type: cell-based; settings: Homo sapiens; MOLT-4 acute lympho, 72 hr; read-out: IC50 (50% Inhibition of Proliferation)
Description: (§1) MDA-MB-231, HT-29, NCI-H460, NCI-H522, NCI-H69, GXF-209, HepG2, OVAR-3, PANC-1, DU-145, LNCAP, HL-60, K-562, and MOLT-4 cell lines were either obtained from the American Type Culture Collection (ATCC; Manassas, Va.), or from the National Cancer Institute (NCI; Frederick, Md.). RPMI-1640 media, L-glutamine dipeptide (HyQ SG-200), and HEPES were obtained from Hyclone (Logan, Utah).
(§2) All cell lines were routinely cultured twice weekly in RPMI-1640 medium supplemented with 2 mM L-glutamine dipeptide, 10 mM HEPES, and 10% FBS.
(§3) The adherent cell lines MDA-MB-231, HT-29, NCI-H460, NCI-H522, GXF-209, HepG2, OVAR-3, PANC-1, DU-145, and LNCAP cells were each seeded into two 96-well plates at 2,500 cells per well in a total volume of 50 uL and incubated in a 37° C. humidified 5% CO2 cell culture incubator overnight. The suspension cell lines NCI-H69, HL-60, K-562, and MOLT-4 were each seeded into two 96-well plates at 10,000 cell per well in a total volume of 50 uL and incubated in a 37° C. humidified 5% CO2 incubator overnight.
(§4) This was followed by making 2× stocks of the final concentrations required in RPMI-1640 medium. […]
(§5) Briefly, plates were removed from the incubator and placed on the bench at room temperatures for 30 minutes. […] Luminescence was then recorded using the PerkinElmer Microbeta scintillation and luminescence counter (Trilux).

[2] = tested on: R. arrhizus; experiment: Antifungal susceptibility testing (broth dilution), R. arrhizus; assay type: cell-based, Rhizopus oryzae; settings: for MIC: Rhizopus arrhizus, read-out: minimum inhibitory concentration (MIC)
Description: (§6) Anti-fungal testing was completed with a common lot for compounds 100 and 102.
(§7) A 10 mg portion of each powder was weighed out and added to 1 ml of sterile distilled water for compound 100 and DMSO for compound 102. The resulting concentration of […] was diluted to a working concentration of 640 μg/ml for each compound. All subsequent dilutions were also made using the respective diluents. Final testing concentrations ranged from 0.125-64 μg/ml.
(§8) A total of 23 isolates were tested to include 3 Candida albicans, 3 Candida glabrata, 3 Cryptococcus neoformans, 3 Aspergillus fumigatus, 3 Rhizopus oryzae, 3, Fusarium solani, 3 Pseudallescheria boydii, and 2 […] rubrum. All isolates were clinical isolates submitted to the Fungus Testing Laboratory for evaluation. Antifungal susceptibility testing was accomplished according to the methods outlined in the National Committee for Clinical Laboratory Standards, M-27A2, Reference Method for Broth Dilution Antifungal Susceptibility Testing of Yeasts; Approved Standard, and M38-A “Reference Method for Broth Dilution Antifungal Susceptibility Testing of Conidium-Forming Filamentous Fungi; Approved Standard”. This includes testing in RPMI-1640 with glutamine and without bicarbonate, an inoculum size of 0.5-2.5×10^3 for yeasts or 1-5×10^4 for moulds, and incubation at 35° C. for 24 and 48 hours.

[3] = tested on: C. albicans; experiment: Antifungal susceptibility testing (broth dilution), C. albicans; assay type: cell-based, Candida albicans; settings: for MIC: Candida albicans, read-out: minimum inhibitory concentration (MIC)
Description: as §6, §7, §8

[4] = tested on: F. solani; experiment: Antifungal susceptibility testing (broth dilution), F. solani; assay type: cell-based, Fusarium solani; settings: for MIC: Fusarium solani, read-out: minimum inhibitory concentration (MIC)
Description: as §6, §7, §8

[5] = tested on: C. neoformans; experiment: Antifungal susceptibility testing (broth dilution), C. neoformans; assay type: cell-based, Cryptococcus neoformans; settings: for MIC: Cryptococcus neoformans, read-out: minimum inhibitory concentration (MIC)
Description: as §6, §7, §8

[6] = tested on: Fourteen Human Cancer Cell Lines; experiment: CellTiter-Glo assay, panel of fourteen human cancer cell lines; assay type: cell-based; settings: compared with positive comparator doxorubicin
Description: as §1, §2, §3, §4, §5

[7] = tested on: NCI-H460 cells; experiment: CellTiter-Glo assay, NCI-H460; assay type: cell-based; settings: Homo sapiens; NCI-H460 Lung: large cell, 72 hr; read-out: IC50 (50% Inhibition of Proliferation)
Description: as §1, §2, §3, §4, §5

[8] = tested on: MDA-MB-231 cells; experiment: CellTiter-Glo assay, MDA-MB-231; assay type: cell-based; settings: Homo sapiens; MDA-MB-231 Breast, 72 hr; read-out: IC50 (50% Inhibition of Proliferation)
Description: as §1, §2, §3, §4, §5

[9] = tested on: GXF-209 cells; experiment: CellTiter-Glo assay, GXF-209; assay type: cell-based; settings: Homo sapiens; GXF-209 Stomach, 72 hr; read-out: IC50 (50% Inhibition of Proliferation)
Description: as §1, §2, §3, §4, §5

[10] = tested on: NCI-H69 cells; experiment: CellTiter-Glo assay, NCI-H69; assay type: cell-based; settings: Homo sapiens; NCI-H69 Lung small cell, 72 hr; read-out: IC50 (50% Inhibition of Proliferation)
Description: as §1, §2, §3, §4, §5

[11] = tested on: P. boydii; experiment: Antifungal susceptibility testing (broth dilution), P. boydii; assay type: cell-based, Pseudallescheria boydii; settings: for MIC: Scedosporium boydii, read-out: minimum inhibitory concentration (MIC)
Description: as §6, §7, §8

[12] = tested on: NCI-H522 cells; experiment: CellTiter-Glo assay, NCI-H522; assay type: cell-based; settings: Homo sapiens; NCI-H522 Lung adenoca, 72 hr; read-out: IC50 (50% Inhibition of Proliferation)
Description: as §1, §2, §3, §4, §5

Structure (SMILES) | IC50 [1] [µM] | minimum inhibitory concentration (MIC) ([2]; isolate 07-2044, 24 Hours) [µg/mL] | minimum inhibitory concentration (MIC) ([2]; isolate 07-2044, 48 Hours) [µg/mL] | minimum inhibitory concentration (MIC) ([2]; isolate 07-2078, 24 Hours) [µg/mL] | minimum inhibitory concentration (MIC) ([2]; isolate 07-2078, 48 Hours) [µg/mL] | minimum inhibitory concentration (MIC) ([3]; isolate 07-3006, 24 Hours) [µg/mL] | minimum inhibitory concentration (MIC) ([3]; isolate 07-3006, 48 Hours) [µg/mL] | minimum inhibitory concentration (MIC) ([3]; isolate 07-3011, 24 Hours) [µg/mL] | minimum inhibitory concentration (MIC) ([3]; isolate 07-3011, 48 Hours) [µg/mL] | minimum inhibitory concentration (MIC) ([4]; isolate 07-1755, 24 Hours) [µg/mL] | minimum inhibitory concentration (MIC) ([4]; isolate 07-1755, 48 Hours) [µg/mL] | minimum inhibitory concentration (MIC) ([4]; isolate 07-1867, 24 Hours) [µg/mL] | minimum inhibitory concentration (MIC) ([4]; isolate 07-1867, 48 Hours) [µg/mL] | minimum inhibitory concentration (MIC) ([5]; isolate 07-2737, 24 Hours) [µg/mL] | minimum inhibitory concentration (MIC) ([5]; isolate 07-2737, 48 Hours) [µg/mL] | minimum inhibitory concentration (MIC) ([5]; isolate 07-2829, 24 Hours) [µg/mL] | minimum inhibitory concentration (MIC) ([5]; isolate 07-2829, 48 Hours) [µg/mL] | Activity against the fourteen cell lines (in words) [6] | IC50 [7] [µM] | IC50 [8] [µM] | also measured
CC(C)(C)OC(=O)N1CCN(C(=O)C2C(C(=O)O)[C@H]3CC[C@@H]2O3)CC1 (stereo in doubt) [Compound 102, 4-(3-Carboxy-7oxa-bicyclo[2.2.1]heptane-2-carbonyl)piperazine-1-carboxylic acid tert-butyl ester] | 5.6 | >64 | >64 | >64 | >64 | >64 | >64 | >64 | >64 | >64 | >64 | >64 | >64 | >64 | >64 | >64 | >64 | significant activity | 17.5 | 6.6 | MIC ([2]; isolate 07-1870, 24 Hours): > 64 µg/mL; MIC ([2]; isolate 07-1870, 48 Hours): > 64 µg/mL; MIC ([3]; isolate 07-3012, 24 Hours): > 64 µg/mL; MIC ([3]; isolate 07-3012, 48 Hours): > 64 µg/mL; MIC ([4]; isolate 07-1399, 24 Hours): > 64 µg/mL; MIC ([4]; isolate 07-1399, 48 Hours): > 64 µg/mL; MIC ([5]; isolate 07-2665, 24 Hours): > 64 µg/mL; MIC ([5]; isolate 07-2665, 48 Hours): > 64 µg/mL; IC50 [9]: 5.3 µM; IC50 [10]: 24.6 µM; MIC ([11]; isolate 07-1333, 24 Hours): > 64 µg/mL; MIC ([11]; isolate 07-1333, 48 Hours): > 64 µg/mL; minimum inhibitory concentration (MIC) ([11]; isolate 07-1502, 24 Hours): >64 µg/mL; minimum inhibitory concentration (MIC) ([11]; isolate 07-1502, 48 Hours): >64 µg/mL; minimum inhibitory concentration (MIC) ([11]; isolate 07-1601, 24 Hours): >64 µg/mL; minimum inhibitory concentration (MIC) ([11]; isolate 07-1601, 48 Hours): >64 µg/mL; IC50 [12]: 2.2 µM
CN1CCN(C(=O)C2C(C(=O)O)[C@H]3CC[C@@H]2O3)CC1 (some centres unmarked) [Compound 100, Endothall 4-Methylpiperazine Monoamide] | 5.7 | >64 | >64 | >64 | >64 | >64 | >64 | >64 | >64 | >64 | >64 | >64 | >64 | >64 | >64 | >64 | >64 | significant activity | 24.3 | 9.5 | MIC ([2]; 24 h): > 64 µg/mL; MIC ([2]; 48 h): > 64 µg/mL; MIC ([3]; 24 h): > 64 µg/mL; MIC ([3]; 48 h): > 64 µg/mL; MIC ([4]; 24 h): > 64 µg/mL; MIC ([4]; 48 h): > 64 µg/mL; MIC ([5]; 24 h): > 64 µg/mL; MIC ([5]; 48 h): > 64 µg/mL; IC50 [9]: 7.9 µM; IC50 [10]: 23.9 µM; MIC ([11]; 24 h): > 64 µg/mL; MIC ([11]; 48 h): > 64 µg/mL; minimum inhibitory concentration (MIC) ([11]; isolate 07-1502, 24 Hours): >64 µg/mL; minimum inhibitory concentration (MIC) ([11]; isolate 07-1502, 48 Hours): >64 µg/mL; minimum inhibitory concentration (MIC) ([11]; isolate 07-1601, 24 Hours): >64 µg/mL; minimum inhibitory concentration (MIC) ([11]; isolate 07-1601, 48 Hours): >64 µg/mL; IC50 [12]: 3.4 µM
